Results published in ChEMBL document CHEMBL4680174, “Synthesis, biological evaluation and in silico modeling of novel integrase strand transfer inhibitors (INSTIs)” (Eur J Med Chem, 2020).
pEC50, pIC50: −log10 of the molar value. Converted amounts (≈) assume the structure as drawn. Each block holds one molecule with its values, some of them ahead of it.

Columns and labels:
[1] = Selectivity index, ratio of CC50 for human CEM-SS cells to EC50 for Antiviral activity against HIV1 3B infected in human CEM-SS cells; assay type: toxicity, cell-based; details: for selectivity ratio: CEM-SS cells, read-out: Ratio CC50/EC50
[2] = Thermodynamic solubility of compound in water at 2 mg after 24 hrs; assay type: physicochemical; details: read-out: Therm_solubility
[3] = Thermodynamic solubility of compound in plON buffer at 2 mg after 24 hrs; assay type: physicochemical; details: read-out: Therm_solubility
[4] = Cytotoxicity against human CEM-SS cells assessed as reduction in cell viability by XTT assay; assay type: cell-based
[5] = tested on: Human immunodeficiency virus 1; assay: Antiviral activity against HIV1 3B infected in human CEM-SS cells assessed as reduction in cytopathic effect after 4 days; assay type: functional, organism-based
[6] = Stability in rat liver microsomes assessed as parent compound remaining at 1 uM up to 24 hrs by LC-MS/MS analysis; assay type: ADME, Microsome; details: read-out: Stabilty
[7] = Elimination rate constant Sprague-Dawley rat at 5 mg/kg, po up to 24 hrs by LC-MS/MS analysis; assay type: ADME, organism-based; details: in vivo
[8] = Tmax in Sprague-Dawley rat at 1 mg/kg, iv up to 24 hrs by LC-MS/MS analysis; assay type: ADME, organism-based; details: in vivo
[9] = Protein binding in rat plasma at 1 uM after 4 hrs by LC-MS/MS analysis; assay type: ADME, cell-free; details: read-out: PPB (converted)
[10] = Drug concentration in Sprague-Dawley rat at 1 mg/kg, iv after 24 hrs by LC-MS/MS analysis; assay type: ADME, organism-based; details: in vivo, read-out: Drug uptake
[11] = Protein binding in human plasma at 1 uM after 4 hrs by LC-MS/MS analysis; assay type: ADME, cell-free; details: read-out: PPB
Cytochrome P450 2C9 = Cytochrome P450 2C9 (Homo sapiens, UniProt P11712); assay: Inhibition of CYP2C9 in human liver microsomes using tolbutamide as substrate incubated for 30 mins by LC-MS/MS analysis; assay type: ADME
Cytochrome P450 1A2 = target: T1, Cytochrome P450 1A2 (Homo sapiens, UniProt P05177); assay: Inhibition of CYP1A2 in human liver microsomes using phenacetin as substrate incubated for 30 mins by LC-MS/MS analysis; assay type: ADME
T1 sequence (P05177 whole entry): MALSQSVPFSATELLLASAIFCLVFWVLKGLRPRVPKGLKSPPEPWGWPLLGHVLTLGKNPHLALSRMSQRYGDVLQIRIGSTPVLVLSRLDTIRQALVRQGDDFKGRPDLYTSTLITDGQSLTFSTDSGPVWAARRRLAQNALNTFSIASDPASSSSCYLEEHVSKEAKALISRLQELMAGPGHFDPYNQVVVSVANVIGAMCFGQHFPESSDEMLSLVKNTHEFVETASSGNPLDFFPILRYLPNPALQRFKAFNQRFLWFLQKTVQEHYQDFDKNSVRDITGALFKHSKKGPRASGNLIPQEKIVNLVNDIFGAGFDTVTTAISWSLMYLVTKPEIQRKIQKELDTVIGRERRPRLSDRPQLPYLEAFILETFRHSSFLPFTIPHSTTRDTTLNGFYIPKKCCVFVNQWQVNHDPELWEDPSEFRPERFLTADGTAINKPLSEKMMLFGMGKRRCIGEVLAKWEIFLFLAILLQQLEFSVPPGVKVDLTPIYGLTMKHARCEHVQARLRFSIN

[12] = Stability in human plasma assessed as parent compound remaining at 1 uM up to 24 hrs by LC-MS/MS analysis; assay type: ADME, cell-free; details: read-out: Stabilty
[13] = Stability in rat plasma assessed as parent compound remaining at 1 uM up to 24 hrs by LC-MS/MS analysis; assay type: ADME, cell-free; details: read-out: Stabilty
[14] = Tmax in Sprague-Dawley rat at 5 mg/kg, po up to 24 hrs by LC-MS/MS analysis; assay type: ADME, organism-based; details: in vivo
[15] = Drug concentration in Sprague-Dawley rat at 5 mg/kg, po after 24 hrs by LC-MS/MS analysis; assay type: ADME, organism-based; details: in vivo, read-out: Drug uptake
[16] = Drug concentration in Sprague-Dawley rat at 1 mg/kg, iv after 8 hrs by LC-MS/MS analysis; assay type: ADME, organism-based; details: in vivo, read-out: Drug uptake
Cytochrome P450 2D6 = Cytochrome P450 2D6 (Homo sapiens, UniProt P10635); assay: Inhibition of CYP2D6 in human liver microsomes using dextromethorphan as substrate incubated for 30 mins by LC-MS/MS analysis; assay type: ADME
[17] = Elimination rate constant Sprague-Dawley rat at 1 mg/kg, iv up to 24 hrs by LC-MS/MS analysis; assay type: ADME, organism-based; details: in vivo
Cytochrome P450 3A4 = Cytochrome P450 3A4 (Homo sapiens, UniProt P08684); assay: Inhibition of CYP3A4 in human liver microsomes using midazolam as substrate incubated for 30 mins by LC-MS/MS analysis; assay type: ADME
[18] = Oral bioavailability in Sprague-Dawley rat at 5 mg/kg up to 24 hrs by LC-MS/MS analysis; assay type: ADME, organism-based; details: in vivo
[19] = Drug concentration in Sprague-Dawley rat at 5 mg/kg, po after 8 hrs by LC-MS/MS analysis; assay type: ADME, organism-based; details: in vivo, read-out: Drug uptake
Cytochrome P450 2C8 = target: T2, Cytochrome P450 2C8 (Homo sapiens, UniProt P10632); assay: Inhibition of CYP2C8 in human liver microsomes using amodiaquine as substrate incubated for 30 mins by LC-MS/MS analysis; assay type: ADME
T2 sequence (P10632 whole entry): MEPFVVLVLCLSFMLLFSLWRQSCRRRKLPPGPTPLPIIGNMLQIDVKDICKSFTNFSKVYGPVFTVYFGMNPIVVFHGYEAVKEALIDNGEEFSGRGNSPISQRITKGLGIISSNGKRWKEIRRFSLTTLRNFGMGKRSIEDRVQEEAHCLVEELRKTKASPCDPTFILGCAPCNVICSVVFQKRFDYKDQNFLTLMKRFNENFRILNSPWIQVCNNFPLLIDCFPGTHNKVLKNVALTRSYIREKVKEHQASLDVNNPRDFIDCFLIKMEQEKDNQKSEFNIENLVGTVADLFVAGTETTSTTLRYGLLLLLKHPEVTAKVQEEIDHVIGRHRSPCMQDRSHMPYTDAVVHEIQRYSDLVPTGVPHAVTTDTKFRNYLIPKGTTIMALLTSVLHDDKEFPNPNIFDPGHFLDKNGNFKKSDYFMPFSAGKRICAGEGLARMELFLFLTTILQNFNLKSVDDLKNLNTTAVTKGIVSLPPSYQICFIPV

[20] = Stability in human liver microsomes assessed as parent compound remaining at 1 uM up to 24 hrs by LC-MS/MS analysis; assay type: ADME, Microsome; details: read-out: Stabilty
Cytochrome P450 2C19 = Cytochrome P450 2C19 (Homo sapiens, UniProt P33261); assay: Inhibition of CYP2C19 in human liver microsomes using S-mephenytoin as substrate incubated for 30 mins by LC-MS/MS analysis; assay type: ADME
[21] = Human immunodeficiency virus 1, 3B, CEM-SS, 96 h

Cytochrome P450 3A4, sequence (P08684 whole entry): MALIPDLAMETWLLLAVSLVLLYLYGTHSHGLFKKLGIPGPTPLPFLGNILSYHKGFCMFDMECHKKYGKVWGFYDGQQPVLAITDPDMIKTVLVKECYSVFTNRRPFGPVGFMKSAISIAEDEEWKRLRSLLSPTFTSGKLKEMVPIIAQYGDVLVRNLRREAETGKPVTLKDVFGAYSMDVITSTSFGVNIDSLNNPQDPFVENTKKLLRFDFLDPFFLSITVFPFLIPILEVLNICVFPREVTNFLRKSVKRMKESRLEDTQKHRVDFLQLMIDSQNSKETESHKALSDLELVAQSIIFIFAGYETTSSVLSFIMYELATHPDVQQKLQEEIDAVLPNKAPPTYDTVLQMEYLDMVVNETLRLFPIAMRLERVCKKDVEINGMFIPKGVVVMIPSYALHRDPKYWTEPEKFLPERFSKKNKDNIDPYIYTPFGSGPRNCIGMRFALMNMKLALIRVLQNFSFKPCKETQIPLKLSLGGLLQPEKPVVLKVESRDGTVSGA
Cytochrome P450 2C9, sequence (P11712 whole entry): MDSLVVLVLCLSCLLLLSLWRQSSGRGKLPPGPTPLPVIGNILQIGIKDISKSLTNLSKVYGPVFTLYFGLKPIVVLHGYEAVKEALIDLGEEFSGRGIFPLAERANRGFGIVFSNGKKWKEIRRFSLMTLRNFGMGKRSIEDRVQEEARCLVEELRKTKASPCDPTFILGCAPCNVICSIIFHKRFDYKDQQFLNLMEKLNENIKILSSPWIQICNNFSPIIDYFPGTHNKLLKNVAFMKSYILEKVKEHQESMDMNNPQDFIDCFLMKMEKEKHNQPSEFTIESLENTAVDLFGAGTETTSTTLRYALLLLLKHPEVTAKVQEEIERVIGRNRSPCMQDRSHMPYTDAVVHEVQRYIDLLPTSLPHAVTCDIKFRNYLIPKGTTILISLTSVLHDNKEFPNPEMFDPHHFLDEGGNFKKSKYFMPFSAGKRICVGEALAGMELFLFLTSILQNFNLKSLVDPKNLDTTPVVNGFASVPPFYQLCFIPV
Cytochrome P450 2D6, sequence (P10635 whole entry): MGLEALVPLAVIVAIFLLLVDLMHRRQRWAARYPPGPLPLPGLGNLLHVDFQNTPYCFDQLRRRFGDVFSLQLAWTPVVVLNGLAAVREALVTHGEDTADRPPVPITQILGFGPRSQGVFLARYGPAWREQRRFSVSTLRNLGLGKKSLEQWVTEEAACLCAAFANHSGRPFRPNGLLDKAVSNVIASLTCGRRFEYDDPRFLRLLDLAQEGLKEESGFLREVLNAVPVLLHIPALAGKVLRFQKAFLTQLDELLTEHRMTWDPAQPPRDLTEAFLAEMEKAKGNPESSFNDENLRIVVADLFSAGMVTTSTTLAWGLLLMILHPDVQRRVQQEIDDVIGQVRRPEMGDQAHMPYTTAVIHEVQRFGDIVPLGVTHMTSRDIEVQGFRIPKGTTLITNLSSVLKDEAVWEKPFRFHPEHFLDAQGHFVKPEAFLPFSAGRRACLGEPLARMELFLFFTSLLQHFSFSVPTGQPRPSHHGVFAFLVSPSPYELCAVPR
Cytochrome P450 2C19, sequence (P33261 whole entry): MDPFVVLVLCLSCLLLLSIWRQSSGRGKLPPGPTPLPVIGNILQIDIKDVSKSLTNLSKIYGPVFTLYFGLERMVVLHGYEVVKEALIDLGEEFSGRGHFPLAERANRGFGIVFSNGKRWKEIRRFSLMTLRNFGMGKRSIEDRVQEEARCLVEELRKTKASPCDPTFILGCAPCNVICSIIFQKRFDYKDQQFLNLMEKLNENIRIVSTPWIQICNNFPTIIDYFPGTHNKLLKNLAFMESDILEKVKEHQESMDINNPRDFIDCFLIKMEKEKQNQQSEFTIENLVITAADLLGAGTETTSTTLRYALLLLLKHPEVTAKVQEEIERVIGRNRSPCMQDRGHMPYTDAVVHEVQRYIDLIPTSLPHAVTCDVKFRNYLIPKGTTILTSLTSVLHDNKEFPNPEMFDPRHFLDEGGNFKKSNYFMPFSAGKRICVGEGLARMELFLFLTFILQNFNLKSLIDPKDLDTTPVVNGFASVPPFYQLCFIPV

solubility thermodynamic at 24 h [2]: 57 µg/mL (≈ 136 µM) | solubility thermodynamic at 24 h [3]: 80 µg/mL (≈ 190 µM) | pEC50 [5, 21]: 8.29
Compound: C[C@@H]1CCO[C@H]2Cn3cc(C(=O)NCc4ccc(F)nc4F)c(=O)c(O)c3C(=O)N12
selectivity ratio [1]: > 1.9 | CC50 [4]: > 10 nM

solubility thermodynamic at 24 h [2]: 269 µg/mL (≈ 662 µM) | solubility thermodynamic at 24 h [3]: 232 µg/mL (≈ 571 µM) | remaining at 24 h, 1 µM [6]: 83.8% | k el at 24 h [7]: 1.11e-05 s⁻¹ | Tmax [8]: 4.8 min | fraction unbound at 4 h, 1 µM [9]: 0.011 | concentration at 24 h [10]: 5430 ng/mL | fraction unbound at 4 h, 1 µM [11]: 0.001 | pIC50 (Cytochrome P450 2C9): < 5.00 | pIC50 (Cytochrome P450 1A2): < 5.00 | remaining at 24 h, 1 µM [12]: 95% | remaining at 24 h, 1 µM [13]: 94.5% | Tmax [14]: 3 h | concentration at 24 h [15]: 4440 ng/mL | concentration at 8 h [16]: 8620 ng/mL | pIC50 (Cytochrome P450 2D6): < 5.00 | k el at 24 h [17]: 8.33e-06 s⁻¹ | pIC50 (Cytochrome P450 3A4): < 5.00 | bioavailability [18]: 17.5% | concentration at 8 h [19]: 7910 ng/mL | pEC50 ([5]; cem-ss): 9.62 | pIC50 (Cytochrome P450 2C8): < 5.00 | remaining at 24 h, 1 µM [20]: 84% | pIC50 (Cytochrome P450 2C19): < 5.00
Compound: C[C@H]1CO[C@@H]2Cn3cc(C(=O)NCc4ccc(F)nc4F)c(=O)c(O)c3C(=O)N12
Ratio CC50/EC50 [1]: > 41.7 | CC50 [4]: > 10 nM

solubility thermodynamic at 24 h [2]: 347 µg/mL (≈ 854 µM) | solubility thermodynamic at 24 h [3]: 380 µg/mL (≈ 935 µM) | pEC50 [5, 21]: 8.58
Compound: C[C@H]1CO[C@@H]2Cn3cc(C(=O)NCc4c(F)cncc4F)c(=O)c(O)c3C(=O)N12
selectivity ratio [1]: > 3.8 | CC50 [4]: > 10 nM

Continued, molecule first:

Compound: C[C@H]1CO[C@@H]2Cn3cc(C(=O)NCc4nn(C)c(Cl)c4Cl)c(=O)c(O)c3C(=O)N12
selectivity ratio [1]: > 16.9 | solubility thermodynamic at 24 h [2]: 318 µg/mL (≈ 719 µM) | solubility thermodynamic at 24 h [3]: 318 µg/mL (≈ 719 µM) | CC50 [4]: > 10 nM | pEC50 [5, 21]: 9.23

Compound: C[C@H]1CO[C@@H]2Cn3cc(C(=O)NCc4ncc(F)cc4F)c(=O)c(O)c3C(=O)N12
solubility thermodynamic at 24 h [2]: 131 µg/mL (≈ 322 µM) | solubility thermodynamic at 24 h [3]: 196 µg/mL (≈ 482 µM)

Compound: C[C@H]1CO[C@@H]2Cn3cc(C(=O)NCc4cccc5cccnc45)c(=O)c(O)c3C(=O)N12
selectivity ratio [1]: > 4.6 | solubility thermodynamic at 24 h [2]: 10 µg/mL (≈ 23.8 µM) | solubility thermodynamic at 24 h [3]: 6 µg/mL (≈ 14.3 µM) | CC50 [4]: > 10 nM | pEC50 [5, 21]: 8.66

Compound: C[C@H]1CO[C@@H]2Cn3cc(C(=O)NCc4ccnc5ccccc45)c(=O)c(O)c3C(=O)N12
solubility thermodynamic at 24 h [2]: 31 µg/mL (≈ 73.7 µM) | solubility thermodynamic at 24 h [3]: 8 µg/mL (≈ 19 µM)

Compound: C[C@H]1CO[C@@H]2Cn3cc(C(=O)NCc4cccs4)c(=O)c(O)c3C(=O)N12
selectivity ratio [1]: > 6.9 | solubility thermodynamic at 24 h [2]: 33 µg/mL (≈ 87.9 µM) | solubility thermodynamic at 24 h [3]: 24 µg/mL (≈ 63.9 µM) | CC50 [4]: > 10 nM | pEC50 [5, 21]: 8.84
